Patent US20200060276A1, “THIAZOLE COMPOUND AND HERBICIDE” (OAT Agrio Co., Ltd., priority 2017, published 2020)

Columns and labels:
Format in all cases: in vivo
[1] = tested on: Echinochloa crus-galli (L.) P. Beauv. var. formosensis Ohwi; assay: Test for Herbicidal Effect in Flooding Treatment (#2), ECHDG at 2-2.5 leaf stage; details: for ECHDG (2-2.5L) #2 herbicidal effect (growth inhibition grade): flooding treatment at 2-2.5 leaf stage, dose 0.2 kg/ha, visual observation on day 21; for ECHDG (2-2.5L) #2 herbicidal effect (growth inhibition rating 0-5): flooding treatment #2, 2-2.5 leaf stage
Procedure: (#2) Test for Herbicidal Effect in Flooding Treatment: Styrol cups each having an opening diameter of 13 cm (about 130 cm^2) were respectively filled with muddy soil (500 ml). Water (about 300 ml) was mixed with the soil such that the soil was flooded. After the soil stood still for 24 hours, Echinochloa crus-galli (L.) P. Beauv. var. formosensis Ohwi was seeded. When the Echinochloa crus-galli (L.) P. Beauv. var. formosensis Ohwi grew to reach 2-2.5 leaf stage, chemical solutions were dropped on the entire surface of treatment sections, so that each section is treated with 1 ml of the respective chemical solution (a dose of 0.2 kg/ha). Each of the chemical solutions was prepared by dissolving associated one of the compounds of the present invention in acetone, followed by dilution with water containing Tween 80 g. After the treatment, the plants were grown in a glasshouse. On day 21, a survey was conducted on the herbicidal activity by visual observation, and evaluation was made according to the following criteria. 0: Growth inhibition effect is less than 10%. 1: Growth inhibition effect is equal to or greater than 10%, and less than 30%. 2; Growth inhibition effect is equal to or greater than 30%, and less than 50%. 3: Growth inhibition effect equal to or greater than 50%, and less than 70%. 4: Growth inhibition effect is equal to or greater than 70%, and less than 90%. 5: Growth inhibition effect is equal to or greater than 90%, or complete withering is achieved. ECHDG=Echinochloa crus-galli (L.) P. Beauv. var. formosensis Ohwi, MONVA=Monochoria vaginalis, SCIJU=Scirpus juncoides, CYMIC=Cyperus microiria. The herbicidal activity of the following comparative compounds A and B (the compounds disclosed Japanese Unexamined Patent Publication No. 2003-096059) were evaluated in a manner pursuant to Test Example 1. (#2).

Scirpus juncoides = assay: Test for Herbicidal Effect in Flooding Treatment (#1), SCIJU; details: for SCIJU #1 herbicidal effect (growth inhibition grade): flooding treatment at seeding, dose 2 kg/ha, visual observation on day 21; for SCIJU #1 herbicidal effect (growth inhibition rating 0-5): flooding treatment #1
Procedure: (§1) (#1) Test for Herbicidal Effect in Flooding Treatment: Styrol cups each having an opening diameter of 8 cm (about 52 cm^2) were respectively filled with soil (45 ml) which had been passed through a sieve (2 mm). Water (about 115 ml) was mixed with the soil such that the soil was flooded. After the soil stood still for 24 hours, Monochoria vaginalis, Echinochloa crus-galli (L.) P. Beauv. var. formosensis Ohwi, Cyperus difformis (umbrella sedge), and Scirpus juncoides were seeded. Each of the compounds of the present invention was dissolved in acetone, and the obtained product was then diluted with water containing Tween 80®. Each of the resultant chemical solutions was dropped on the entire surface of an associated one of treatment sections, so that each section was treated with 1 ml of the respective chemical solution (a dose of 2 kg/ha). After the treatment, the plants were grown in a glasshouse. On day 21, a survey was conducted on the herbicidal activity by visual observation, and evaluation was made according to the following criteria. 0: Growth inhibition effect is less than 10%. 1: Growth inhibition effect is equal to or greater than 10%, and less than 30%. 2; Growth inhibition effect is equal to or greater than 30%, and less than 50%. 3: Growth inhibition effect equal to or greater than 50%, and less than 70%. 4: Growth inhibition effect is equal to or greater than 70%, and less than 90%. 5: Growth inhibition effect is equal to or greater than 90%, or complete withering is achieved. ECHDG=Echinochloa crus-galli (L.) P. Beauv. var. formosensis Ohwi, MONVA=Monochoria vaginalis, SCIJU=Scirpus juncoides, CYMIC=Cyperus microiria.

[2] = tested on: Echinochloa crus-galli (L.) P. Beauv. var. formosensis Ohwi; assay: Test for Herbicidal Effect in Flooding Treatment (#1), ECHDG; details: for ECHDG #1 herbicidal effect (growth inhibition grade): flooding treatment at seeding, dose 2 kg/ha, visual observation on day 21; for ECHDG #1 herbicidal effect (growth inhibition rating 0-5): flooding treatment #1
Procedure: as §1

SMILES | ECHDG (2-2.5L) #2 herbicidal effect (growth inhibition grade) [1] | SCIJU #1 herbicidal effect (growth inhibition grade) (Scirpus juncoides) | ECHDG #1 herbicidal effect (growth inhibition grade) [2] | ECHDG (2-2.5L) #2 herbicidal effect (growth inhibition rating 0-5) [1] | SCIJU #1 herbicidal effect (growth inhibition rating 0-5) (Scirpus juncoides) | ECHDG #1 herbicidal effect (growth inhibition rating 0-5) [2]
CC(c1c(F)cccc1OC(F)F)S(=O)(=O)c1ncc(Cl)s1 (racemic) [Compound 1C-140] | 5 (Growth inhibition effect is equal to or greater than 90%, or complete withering is achieved) | 5 (Growth inhibition effect is equal to or greater than 90%, or complete withering is achieved) | 5 (Growth inhibition effect is equal to or greater than 90%, or complete withering is achieved) | – | – | –
[O-][S+](Cc1c(Cl)cccc1OC(F)F)c1ncc(Cl)s1 (stereo not shown) [Compound 1B-4] | – | – | – | 5 (Growth inhibition effect is equal to or greater than 90%, or complete withering is achieved) | 5 (Growth inhibition effect is equal to or greater than 90%, or complete withering is achieved) | 5 (Growth inhibition effect is equal to or greater than 90%, or complete withering is achieved)
[O-][S+](Cc1c(F)cccc1OC(F)(F)F)c1ncc(Cl)s1 (stereo not shown) [Compound 1B-5] | – | – | – | 5 (Growth inhibition effect is equal to or greater than 90%, or complete withering is achieved) | 5 (Growth inhibition effect is equal to or greater than 90%, or complete withering is achieved) | 5 (Growth inhibition effect is equal to or greater than 90%, or complete withering is achieved)
[O-][S+](Cc1c(Cl)cccc1OC(F)(F)F)c1ncc(Cl)s1 (stereo not shown) [Compound 1B-6] | – | – | – | 5 (Growth inhibition effect is equal to or greater than 90%, or complete withering is achieved) | 5 (Growth inhibition effect is equal to or greater than 90%, or complete withering is achieved) | 5 (Growth inhibition effect is equal to or greater than 90%, or complete withering is achieved)
[O-][S+](Cc1c(OCC(F)(F)F)cccc1C(F)(F)F)c1ncc(Cl)s1 (stereo not shown) [Compound 1B-11] | – | – | – | 5 (Growth inhibition effect is equal to or greater than 90%, or complete withering is achieved) | 5 (Growth inhibition effect is equal to or greater than 90%, or complete withering is achieved) | 5 (Growth inhibition effect is equal to or greater than 90%, or complete withering is achieved)
[O-][S+](Cc1ccccc1OC(F)F)c1ncc(Br)s1 (stereo not shown) [Compound 1B-18] | – | – | – | 5 (Growth inhibition effect is equal to or greater than 90%, or complete withering is achieved) | 5 (Growth inhibition effect is equal to or greater than 90%, or complete withering is achieved) | 5 (Growth inhibition effect is equal to or greater than 90%, or complete withering is achieved)
[O-][S+](Cc1c(F)cccc1OC(F)(F)F)c1ncc(Br)s1 (stereo not shown) [Compound 1B-21] | – | – | – | 5 (Growth inhibition effect is equal to or greater than 90%, or complete withering is achieved) | 5 (Growth inhibition effect is equal to or greater than 90%, or complete withering is achieved) | 5 (Growth inhibition effect is equal to or greater than 90%, or complete withering is achieved)
[O-][S+](Cc1c(Cl)cccc1OC(F)(F)F)c1ncc(Br)s1 (stereo not shown) [Compound 1B-22] | – | – | – | 5 (Growth inhibition effect is equal to or greater than 90%, or complete withering is achieved) | 5 (Growth inhibition effect is equal to or greater than 90%, or complete withering is achieved) | –
[O-][S+](Cc1ccccc1OC(F)(F)C(F)F)c1ncc(Br)s1 (stereo not shown) [Compound 1B-23] | – | – | – | 4 (Growth inhibition effect is equal to or greater than 70%, and less than 90%) | – | 5 (Growth inhibition effect is equal to or greater than 90%, or complete withering is achieved)
[O-][S+](Cc1c(OC(F)(F)C(F)(F)F)cccc1C(F)(F)F)c1ncc(Br)s1 (stereo not shown) [Compound 1B-25] | – | – | – | 5 (Growth inhibition effect is equal to or greater than 90%, or complete withering is achieved) | 5 (Growth inhibition effect is equal to or greater than 90%, or complete withering is achieved) | 5 (Growth inhibition effect is equal to or greater than 90%, or complete withering is achieved)
CCS(=O)(=O)c1cccc(F)c1C[S+]([O-])c1ncc(Cl)s1 (stereo not shown) [Compound 1B-28] | – | – | – | – | 4 (Growth inhibition effect is equal to or greater than 70%, and less than 90%) | 5 (Growth inhibition effect is equal to or greater than 90%, or complete withering is achieved)
O=S(=O)(Oc1cccc(F)c1C[S+]([O-])c1ncc(Cl)s1)C(F)(F)F (stereo not shown) [Compound 1B-29] | – | – | – | 5 (Growth inhibition effect is equal to or greater than 90%, or complete withering is achieved) | 5 (Growth inhibition effect is equal to or greater than 90%, or complete withering is achieved) | 5 (Growth inhibition effect is equal to or greater than 90%, or complete withering is achieved)
COc1ccc(CS(=O)(=O)c2ncc(Cl)s2)c(F)c1 [Compound 1C-1] | – | 4 (Growth inhibition effect is equal to or greater than 70%, and less than 90%) | 5 (Growth inhibition effect is equal to or greater than 90%, or complete withering is achieved) | – | – | –
O=S(=O)(Cc1ccc(F)c(Oc2ccccc2)c1)c1ncc(Cl)s1 [Compound 1C-86] | 1 (Growth inhibition effect is equal to or greater than 10%, and less than 30%) | – | 5 (Growth inhibition effect is equal to or greater than 90%, or complete withering is achieved) | – | – | –
O=S(=O)(Cc1ccccc1OC(F)(F)C(F)F)c1ncc(Br)s1 [Compound 1C-163] | – | 5 (Growth inhibition effect is equal to or greater than 90%, or complete withering is achieved) | 5 (Growth inhibition effect is equal to or greater than 90%, or complete withering is achieved) | – | – | –
O=C(CCl)Oc1cccc(F)c1CS(=O)(=O)c1ncc(Cl)s1 [Compound 1C-173] | – | 4 (Growth inhibition effect is equal to or greater than 70%, and less than 90%) | – | – | – | –
CC(C)(C)[Si](C)(C)Oc1cccc(F)c1CS(=O)(=O)c1ncc(Cl)s1 [Compound 1C-178] | – | 4 (Growth inhibition effect is equal to or greater than 70%, and less than 90%) | 5 (Growth inhibition effect is equal to or greater than 90%, or complete withering is achieved) | – | – | –
COC(=O)COc1cccc(F)c1CS(=O)(=O)c1ncc(Cl)s1 [Compound 1C-181] | – | 4 (Growth inhibition effect is equal to or greater than 70%, and less than 90%) | 5 (Growth inhibition effect is equal to or greater than 90%, or complete withering is achieved) | – | – | –
CCOC(=O)C(F)Oc1cccc(F)c1CS(=O)(=O)c1ncc(Cl)s1 (stereo not shown) [Compound 1C-182] | – | 3 (Growth inhibition effect equal to or greater than 50%, and less than 70%) | 5 (Growth inhibition effect is equal to or greater than 90%, or complete withering is achieved) | – | – | –
